Laboratory results from patent US10995358B2, “Rapid antibiotic susceptibility test using membrane fluorescence staining and spectral intensity ratio improved by flow cytometry dead to live population ratio” (POCARED Diagnostics LTD., priority 2017, dated 2021).

What was measured:
Assay type in all cases: cell-based
[1] = tested on: 31 positive blood cultures (E. coli, K. pneumonia, A. baummanii, P. mirabilis, E. cloacae, Aeromonass spp., K. oxytoca); experiment: Macro dilution reference method, positive blood cultures (visual growth after 16-20 hours); conditions: 31 strains from positive blood cultures
Procedure: 31 positive blood cultures were obtained from Sheba Medical Center (Ramat-Gan, Israel) and tested for antimicrobial susceptibility with gentamicin and ampicillin antibiotics (Sigma-Aldrich, USA). A total of 62 positive blood samples-antibiotics combinations were tested. • a) Positive blood samples were received from Sheba Medical Center, 2 ml of each sample were centrifuged for 15 min at 24×g and Supernatants were diluted 1:1000 with Cation-Adjusted Mueller Hinton Broth (CAMHB). • b) Antimicrobial stock solutions were prepared according to CLSI recommendations, and were diluted in CAMHB, to a concentration which was 2 fold higher from the highest concentration recommended for each antimicrobial combination (“Class II Special Controls Guidance Document: Antimicrobial Susceptibility Test (AST) Systems”, Aug. 28, 2009, FDA). • c) For each sample/antimicrobial combination, a set of tubes was prepared for which 1 ml of CAMHB medium was added, except for the first tube. • d) To each first tube of the set, 2 ml from the antimicrobial stock solution (b) was dispensed. • e) From the first tube a serial dilutions of 2 folds were prepared by transferring 1 ml of the solution to the next tube until the lowest required concentration by CLSI. 1 ml was discarded from the last tube in each set of tubes. • f) To each tube in the set, 1 ml of bacterial sample solution (a) was added. • g) For each serial dilutions set, two controls were added. As a negative control, a tube with 2 ml of CAMHB. As a positive control, a tube with bacterial sample solution (a) without antimicrobial agent. • h) All tubes were incubated at 37° C. • i) 2-4 hours from incubation initiation, 200 μl from each tube were transferred into a fresh tube, dyed with 2 μl of Synaptogreen or FM 1-43 (Sigma-Aldrich; Molecular Probes, respectively) and measured by a flow cytometer. The rest of the sample was further incubated for 16-20 hours and then was visually evaluated for growth.
62 samples (31 positive blood cultures and 2 antibiotics combination) were analyzed in triplicates. Each sample was measured by the flow cytometer and the MIC was calculated using the spectral intensity ratio (SIR) calculation and step function estimation. The bacteria identified within the samples were; E. coli (15 samples), K. pneumonia (6 samples), A. baummanii (4 samples), P. mirabilis (2 samples), E. cloacae (2 samples), Aeromonass spp. (1 sample), and K. oxytoca (1 sample).
Tables 1 and 2 present the results of the positive blood sample experiment using the macro dilution as the reference method. […] There are no errors as defined by “Class II Special Controls Guidance Document: Antimicrobial Susceptibility Test (AST) Systems,” Aug. 28, 2009, FDA.

[2] = tested on: E. coli; experiment: Rapid AST from positive blood culture by FM 1-43 staining, flow cytometry and SIR; conditions: positive blood culture strain, 2-4 hours antibiotic exposure
Procedure: (§1) In general, the method includes; blood culture centrifugation, bacterial antimicrobial exposure for 2 to 4 hours, bacteria staining with a single fluorescence dye followed by a flow cytometric measurement, and mathematical analysis.
(§2) 31 positive blood cultures were obtained from Sheba Medical Center (Ramat-Gan, Israel) and tested for antimicrobial susceptibility with gentamicin and ampicillin antibiotics (Sigma-Aldrich, USA). […] As a positive control, a tube with bacterial sample solution (a) without antimicrobial agent. • h) All tubes were incubated at 37° C. • i) 2-4 hours from incubation initiation, 200 μl from each tube were transferred into a fresh tube, dyed with 2 μl of Synaptogreen or FM 1-43 (Sigma-Aldrich; Molecular Probes, respectively) and measured by a flow cytometer. The rest of the sample was further incubated for 16-20 hours and then was visually evaluated for growth.
(§3) In order to quantify the influence of a certain antimicrobial exposure we define the spectral intensity ratio (SIR) as follows: […]
(§4) The MIC is calculated by plotting the spectral intensity ratio (SIR) as a function of the antimicrobial concentration and approximating it to a step function in the form of […]

[3] = tested on: K. pneumonia; experiment: Rapid AST/MIC from positive blood culture by FM 1-43 staining, flow cytometry and spectral intensity ratio (SIR); conditions: 2-4 hours antibiotic exposure
Procedure: as §1, §2, §3, §4

[4] = tested on: 30 clinical isolates of E. coli, K. pneumoniae, E. cloacae, P. mirabilis, and C. freundii; experiment: Macro dilution reference method, clinical isolates (visual growth after 16-20 hours)
Procedure: A total of 90 isolates-antibiotics combinations were tested. • a) All strains were cultured onto 5% sheep blood agar (Hylabs, Israel), following overnight incubation, colonies were harvested and suspended in Phosphate Buffer Saline (PBS, Sigma-Aldrich). […] 1 ml was discarded from the last tube in each set of tubes. • g) For each serial dilutions set, two controls were added. As a negative control, a tube with 2 ml of CAMHB. […] The rest of the sample was further incubated for 16-20 hours and then was visually evaluated for growth.

[5] = tested on: C. freundii; experiment: Rapid AST from clinical isolates by FM 1-43 staining, flow cytometry and SIR; conditions: clinical isolate, up to 32 μg/ml
Procedure: (§5) Our method includes bacterial antimicrobial treatment for 2 to 4 hours, bacteria staining with a single fluorescence dye followed by a flow cytometric measurement, and mathematical analysis. The following paragraphs describe the method in details.
(§6) A total of 90 isolates-antibiotics combinations were tested. • a) All strains were cultured onto 5% sheep blood agar (Hylabs, Israel), following overnight incubation, colonies were harvested and suspended in Phosphate Buffer Saline (PBS, Sigma-Aldrich). […] The rest of the sample was further incubated for 16-20 hours and then was visually evaluated for growth.
(§7) In order to quantify the influence of a certain antimicrobial treatment, we define the spectral intensity ratio (SIR) as follows: […]
(§8) The MIC is calculated by plotting the spectral intensity ratio (SIR) as a function of the antimicrobial concentration and approximating it to a step function in the form of
(§9) Where a, b, and c are parameters and erf is the error function. The parameters are used to approximate the measured SIR to a step function; a is a scaling parameter, b determines the step slope, and c is the MIC value. […]

[6] = tested on: E. coli; experiment: Rapid AST/MIC from clinical isolates by FM 1-43 staining, flow cytometry and SIR; conditions: clinical isolate, 2-4 hours antibiotic treatment
Procedure: as §5, §6, §7, §8, §9

[7] = tested on: E. coli; experiment: Flow cytometry SIR/SDL dead/live analysis of FM1-43 stained bacteria under Gentamycin exposure; parameters: key to SIR: SIR = ratio of mean FL-3 (610 nm) to FL-1 (530 nm) fluorescence; conditions: for Dead % of This Plot / Live % of This Plot / SDL SIR * D/L / SIR: 120 minutes
Procedure: In this Example, E. coli bacteria samples were incubated with Gentamycin in series dilution from 0 to 32 μgr/ml for 120 minutes. Post incubation the samples were stained with the dye FM1-43 and immediately measured by flow cytometry analysis on light scatter analysis for gating the bacteria and with fluorescence filters: λ1=530/30 and λ2=616/16 nm to analyze the SIR. Moreover gating of the Dead and live bacteria were determined.
From such instant flow-cytometry analysis the SIR and SDL values are evaluated. While performing the same analysis over the whole antibiotic concentrations dilution series the SIR and SDL values were extracted to the concentration series, the data is summarized in Table 5. In Table 5, mean FL1-H and FL3-H is the average of the individual points in the bacteria gated population, i.e. of all measured bacteria. In other words, Fl-1 and FL-3 are merely the fluorescence intensity of each event (bacteria) per a certain fluorescence filter. By referring to FL-1 or FL-3 this means that the mean (average) values of all the events is calculated in the dot plot. FL-1 it is at 530 (±15) nm and FL-3 is at 610 (±10) nm. SIR, is the ratio of FL-3/FL-1. […] So, in order to obtain SIR all that is needed are the FL-3 and FL-1 mean values of the bacterial population in the dot plot. […] By using a predetermined gates, the number of dead and live bacteria can be counted, and then the ratio of dead to live can be calculated and multiplied by the SIR to obtain SDL. The gates are combination of FL-1 and FL-3 and predetermined by control live sample. Plotting SIR, SDL, and DL versus antibiotic concentration is represented in FIG. 15 as (labeled as “SIR”, “SDL”, and “DL”). In FIG. 15, SIR, SDL, and DL are all normalized to the maximum value in the series (column)/dataset and then to 100.
From the data, we can determine the MIC by approximating the MIC as a function of antimicrobial concentration to an error function (FIG. 16) of the following type;
The MIC is the value of the parameter c or a function of it. Specifically, the MIC gets the value of “c”. The value of “c” is the middle of the step in a regular step function of where the step function equals to zero when its values are normalized between −1 to 1.

[8] = tested on: E. coli; experiment: Micro dilution susceptibility test performed in parallel; conditions: after 12 hours of incubation
[9] = 120 minutes incubation, FIG. 17A
[10] = 120 minutes incubation, FIG. 17B
[11] = Gentamycin 1 microg/ml (sub-MIC), listed as Gentamycin
[12] = Gentamycin 1 microg/ml (sub-MIC), listed as gentamycin
[13] = Gentamycin 8 microg/ml (over-MIC), listed as Gentamycin
[14] = Gentamycin 8 microg/ml (over-MIC), listed as gentamycin

CC1(C)S[C@@H]2[C@H](NC(=O)[C@H](N)c3ccccc3)C(=O)N2[C@H]1C(=O)O [Ampicillin, ampicillin]
Reference Method Susceptibilities I (number of strains) [1]: 0 | Reference Method Susceptibilities R (number of strains) [1]: 26 | Reference Method Susceptibilities S (number of strains) [1]: 5 | susceptibility by SIR method [2]: resistant | MIC ([3]; Klebsiella pneumoniae, read-out: MIC (SIR approximated to a step function)): 4 µg/mL | Reference Method Susceptibilities I (number of strains) [4]: 5 | Reference Method Susceptibilities R (number of strains) [4]: 9 | Reference Method Susceptibilities S (number of strains) [4]: 16

gentamicin
susceptibility by SIR method [5]: resistant | MIC (SIR approximated to a step function) [6]: 2 µg/mL | Reference Method Susceptibilities I (number of strains) [1]: 0 | Reference Method Susceptibilities R (number of strains) [1]: 10 | Reference Method Susceptibilities S (number of strains) [1]: 21 | MIC from SIR error function fit (c rounded up to power of 2) [7, 9]: 8 μgr/ml | value of c, error function fit of measured SIR [7, 9]: 4.63 μgr/ml | MIC from SDL error function fit (c rounded up to power of 2) [7, 10]: 8 μgr/ml | value of c, error function fit of measured SDL [7, 10]: 5.38 μgr/ml | Dead % of This Plot ([7]; Gentamycin 0.25 microg/ml): 2.07% | Live % of This Plot ([7]; Gentamycin 0.25 microg/ml): 97.89% | SDL SIR * D/L ([7]; Gentamycin 0.25 microg/ml): 0.026 | SIR ([7]; Gentamycin 0.25 microg/ml): 1.223 | Dead % of This Plot ([7]; Gentamycin 0.5 microg/ml): 2.34% | Live % of This Plot ([7]; Gentamycin 0.5 microg/ml): 97.65% | SDL SIR * D/L ([7]; Gentamycin 0.5 microg/ml): 0.030 | SIR ([7]; Gentamycin 0.5 microg/ml): 1.238 | Dead % of This Plot [7, 11]: 4.64% | Live % of This Plot [7, 11]: 95.29% | Dead % of This Plot [7, 12]: 4.6% | Live % of This Plot [7, 12]: 95.2% | SDL SIR * D/L ([7]; Gentamycin 1 microg/ml): 0.070 | SIR ([7]; Gentamycin 1 microg/ml): 1.437 | Dead % of This Plot ([7]; Gentamycin 2 microg/ml): 6.46% | Live % of This Plot ([7]; Gentamycin 2 microg/ml): 93.52% | SDL SIR * D/L ([7]; Gentamycin 2 microg/ml): 0.099 | SIR ([7]; Gentamycin 2 microg/ml): 1.426 | Dead % of This Plot ([7]; Gentamycin 4 microg/ml): 9.86% | Live % of This Plot ([7]; Gentamycin 4 microg/ml): 90.09% | SDL SIR * D/L ([7]; Gentamycin 4 microg/ml): 0.188 | SIR ([7]; Gentamycin 4 microg/ml): 1.718 | Dead % of This Plot [7, 13]: 18.68% | Live % of This Plot [7, 13]: 81.28% | Dead % of This Plot [7, 14]: 18% | Live % of This Plot [7, 14]: 81% | SDL SIR * D/L ([7]; Gentamycin 8 microg/ml): 0.492 | SIR ([7]; Gentamycin 8 microg/ml): 2.141 | Dead % of This Plot ([7]; Gentamycin 16 microg/ml): 27.28% | Live % of This Plot ([7]; Gentamycin 16 microg/ml): 72.67% | SDL SIR * D/L ([7]; Gentamycin 16 microg/ml): 0.893 | SIR ([7]; Gentamycin 16 microg/ml): 2.379 | Dead % of This Plot ([7]; Gentamycin 32 microg/ml): 21.03% | Live % of This Plot ([7]; Gentamycin 32 microg/ml): 78.95% | SDL SIR * D/L ([7]; Gentamycin 32 microg/ml): 0.622 | SIR ([7]; Gentamycin 32 microg/ml): 2.336 | MIC (SIR approximated to a step function) [3]: 1 µg/mL | Reference Method Susceptibilities I (number of strains) [4]: 4 | Reference Method Susceptibilities R (number of strains) [4]: 5 | Reference Method Susceptibilities S (number of strains) [4]: 21 | MIC, micro dilution susceptibility test [8]: 8 μgr/ml
